The subject of this test is Plasmodium falciparum. The test is described as follows: Antimalarial activity against asexual blood stage Plasmodium falciparum infected in RBC measured after 72 hrs by LDH release assay. The format is functional, organism-based. The settings on record: Erythrocyte. (LDH leaks from cells whose membrane has failed.)
`CC(C)[C@]1(C)CC(=O)N(Cc2cccc(C(=O)NC3CCCc4ccccc43)c2)C(=N)N1` (mixture of isomers): the concentration for a half-maximal effect (EC50) (as a rule, the concentration at which the effect is half-maximal) turned out to be 68 nM.
Next, `C[C@H](NC(=O)c1cc(F)cc(CN2C(=N)NC(C)(C)CC2=O)c1)c1ccccc1`: above 1000 nM; `CC(C)[C@]1(C)CC(=O)N(Cc2cc(F)cc(C(=O)N[C@@H](C)c3ccccc3)c2)C(=N)N1`: 340 nM; `CCC1(CC)NC(=N)N(Cc2cc(F)cc(C(=O)N[C@@H](C)c3ccccc3)c2)C1=O`: above 1000 nM.
On to `CCC1(CC)CC(=O)N(Cc2cccc(C(=O)N[C@@H](C)c3ccccc3)c2)C(=N)N1`, for which the EC50 came out at 114 nM.
`C[C@H](NC(=O)c1cc(F)cc(CN2C(=N)N[C@@](CC3CC3)(c3ccccc3)CC2=O)c1)c1ccccc1` registered an EC50 of 22 nM.
Next, `CCC1(CC)CC(=O)N(Cc2cccc(C(=O)N[C@H]3CCOc4ccccc43)c2)C(=N)N1`: 0.4 nM; `CC(C)[C@]1(C)CC(=O)N(Cc2cccc(C(=O)NC3CCc4ccccc43)c2)C(=N)N1` (mixture of isomers): 66 nM; `CCC1(CC)CC(=O)N(C(c2cccc(C(=O)N[C@@H](C)c3ccccc3)c2)C2CC2)C(=N)N1` (mixture of isomers): 160 nM.
With `CC(C)[C@]1(C)CC(=O)N([C@@H](c2ccccc2)c2cccc(C(=O)N[C@@H](C)c3ccccc3)c2)C(=N)N1` the figure was 440 nM.
With `CC(NC(=O)c1cccc(CN2C(=N)N[C@](C)(C(C)C)CC2=O)c1)c1ccccn1` (mixture of isomers) the figure was above 1000 nM; with `CCC1(CC)CC(=O)N(Cc2ccnc(C(=O)N[C@H]3CCOc4ccccc43)n2)C(=N)N1`, 65 nM; with `CCC1(CC)CC(=O)N(Cc2cc(C(=O)N[C@H]3CCOc4ccccc43)cnn2)C(=N)N1`, 169 nM.
For the compound `CCC1(CC)CC(=O)N([C@H](CCN2CCCC2)c2cccc(C(=O)N[C@@H](C)c3ccccc3)c2)C(=N)N1`, a half-maximal response (EC50) required 8.7 nM.
With `CCC1(CC)CC(=O)N([C@H](CCOC)c2cccc(C(=O)N[C@@H](C)c3ccccc3)c2)C(=N)N1` the figure was 40 nM; with `CCC1(CC)CC(=O)N([C@H](CCO)c2cccc(C(=O)N[C@@H](C)c3ccccc3)c2)C(=N)N1`, 210 nM; with `CCC[C@H](c1cccc(C(=O)N[C@@H](C)c2ccccc2)c1)N1C(=N)NC(CC)(CC)CC1=O`, 0.8 nM.
`CC(C)[C@]1(C)CC(=O)N(Cc2cccc(C(=O)NC3COCc4ccccc43)c2)C(=N)N1` (mixture of isomers) came in with an EC50 of 53 nM.
Consider `CCC1(CC)CC(=O)N(Cc2cc(F)cc(C(=O)N[C@@H](C)c3ccccc3)c2)C(=N)N1`, for which the EC50 came to 93 nM.
The compound `C[C@H](NC(=O)c1cc(F)cc(CN2C(=N)N[C@]3(C)CCCC[C@]3(C)C2=O)c1)c1ccccc1` came in with an EC50 above 1000 nM.
On to `CCC1(CC)CC(=O)N(Cc2ccnc(C(=O)N[C@H]3CCOc4ccccc43)c2)C(=N)N1`, for which the concentration giving a half-maximal response (EC50) turned out to be 17 nM.
As for `CCC1(CC)CC(=O)N([C@H](c2cccnc2)c2cccc(C(=O)N[C@@H](C)c3ccccc3)c2)C(=N)N1`, the concentration for a half-maximal effect (EC50) is 1 nM.
Regarding `CC(C)[C@]1(C)CC(=O)N(Cc2cccc(C(=O)NCCc3ccccc3)c2)C(=N)N1`, the EC50 was above 1000 nM.
With `C[C@H](NC(=O)c1cc(F)cc(CN2C(=N)NC3(CCCCC3)CC2=O)c1)c1ccccc1`, a half-maximal response (EC50) required 250 nM.
With `CCC1(CC)CC(=O)N(Cc2cncc(C(=O)N[C@H]3CCOc4ccccc43)c2)C(=N)N1` the figure was 10 nM; with `C[C@H](NC(=O)c1cc(F)cc(CN2C(=N)NC(c3ccccc3)CC2=O)c1)c1ccccc1` (single isomer, unassigned), above 1000 nM.
With `CC(C)[C@]1(C)CC(=O)N(Cc2cccc(C(=O)NC3CCNc4ccccc43)c2)C(=N)N1` (mixture of isomers) the figure was 64 nM.
Consider `CC(C)[C@]1(C)CC(=O)N(Cc2cccc(C(=O)N[C@H]3CCOc4ccccc43)c2)C(=N)N1`, for which it took 1.5 nM to reach a half-maximal effect (EC50).
With `CC(C)CC(c1ccc(C(F)(F)F)c(C(=O)N2Cc3nccnc3C2)c1)N1C(=N)N[C@](CC2CC2)(c2ccccc2)CC1=O` (some centres undefined) the figure was 17 nM.

Values taken from ChEMBL document CHEMBL5126668, “The Invention of WM382, a Highly Potent PMIX/X Dual Inhibitor toward the Treatment of Malaria” (ACS Med Chem Lett, 2022).
